{"source": "paper PMC12970513", "about": "“Unsaturated Phosphorus Electrophiles to Probe Protein Tyrosine Phosphatases” (Angewandte Chemie (International Ed. in English), 2026)", "tested_on": "PTP1B in MCF-7 cell lysate", "experiment": "Proteomic profiling (SP2E enrichment, LC-MS/MS), MCF-7 lysate", "set-up": "species or system human", "settings": "500 µM SM-PO, vs DMSO", "experimental": "Finally, we employed bottom‐up proteomics to validate that the labeled protein corresponds to the intended target PTP1B. For this, first MCF‐7 cell lysate (400 µg) was treated with 500 µM bio‐PO for 4 h. Directly afterwards, we applied a protocol described by the Kielkowski group, termed SP2E, which integrates protein purification with magnetic carboxyl‐coated beads and enrichment using magnetic streptavidin beads (Figure 5c). […] We reasoned that this might be due to the lower abundance of PTP1B in HEK293T compared to MCF‐7 lysate. Therefore, the protocol was repeated by doubling the proteome input to 800 µg. Following this minor adjustment, PTP1B was then enriched in our analysis (>4‐fold) (Figure 5e). […] However, this protein is included in the contamination repository for affinity purification (CRAPome) and appears in about half of such experiments as a contaminant. Given the comparably low PTP1B levels in Ramos lysate, we refrained from attempting pull‐down experiments from this cell line. […]\nFor proteome labelling using the SP2E workflow, a modified protocol by Becker et al. was followed.^[13] […] Tryptic peptides were eluted from the magnetic beads using a magnetic rack, samples were diluted and analyzed by qToF for purity i.e. absence of detergents and successful trypsin digestion. […]", "data": [{"smiles": "C#CP(=O)(O)Oc1ccc(CCNC(=O)CCCC[C@@H]2SC[C@@H]3NC(=O)N[C@@H]32)cc1", "note": "[SM-PO, 4-(2-biotinamidoethyl)phenyl ethynylphosphonic acid monoester]", "values": [{"measurement": "other proteins enriched by SM-PO", "result": "adipocyte plasma membrane–associated protein (APMAP) was identified among the enriched proteins"}, {"measurement": "enrichment of PTP1B or other phosphatases by SM-PO", "setting": "enrichment >2 log2 fold change, p ≤ 0.05", "result": "neither PTP1B nor any other phosphatase was significantly enriched"}]}]}
